Test results from PubChem BioAssay AID200 (DTP/NCI, 2004).
Several values for one entry are separate records, joined by “and”; a condition that tells them apart may be missing. Equal entries are not always repeated. Toxic doses and inconclusive results are not listed. *1 amine or outer side, *2 acyl side, *3 side chain or, on linkers, in order; H or OH if unused. Where a SMILES comes first, the peptide text is derived from it. Bridges are numbered along the chain shown (N, C = ends). Roman numbers before positions name the chains, in order. [ ]: non-standard residue; d: D form. The star is where a group is joined. ξ: configuration not given here. Quinaldoyl(3-OH,6-OMe) = COc1ccc2nc(C(=O)*)c(O)cc2c1; X6 = CCC(=O)OC1CC=NN([*:1])C1C(=O)[*:2]; X7 = CC(=O)OC1CC=NN([*:1])C1C(=O)[*:2]; ξNMeVal(3-OH) = CNC(C(=O)O)C(C)(C)O; Sar = CNCC(=O)O

Test system: B6C3F1 mice, B16 melanoma ip, median survival T/C
Assay: NCI In Vivo Anticancer Drug Screen. Data for tumor model B16 Melanoma (intraperitoneal) in B6C3F1 mice
Details: endpoint: median survival time, higher = longer survival
Description: The antitumor activity of compounds was measured in mice bearing transplantable tumors. Survival or tumor size were measured and the results are expressed as the measurement made in the treated group (T) divided by the measurement made in the vehicle treated control group (C). The tumor model used in this assay is B16 Melanoma (intraperitoneal) in B6C3F1 mice

[1] = dose: 100.0 mg/kg/injection, schedule: Q01DX009 (ip), vehicle: saline with Tween-80
[2] = dose: 12.5 mg/kg/injection, schedule: Q01DX009 (ip), vehicle: saline with Tween-80
[3] = dose: 25.0 mg/kg/injection, schedule: Q01DX009 (ip), vehicle: saline with Tween-80
[4] = dose: 50.0 mg/kg/injection, schedule: Q01DX009 (ip), vehicle: saline with Tween-80
[5] = dose: 6.25 mg/kg/injection, schedule: Q01DX009 (ip), vehicle: Klucel (hydroxypropylcellulose) (HPC)
[6] = dose: 12.5 mg/kg/injection, schedule: Q01DX009 (ip), vehicle: Klucel (hydroxypropylcellulose) (HPC)
[7] = dose: 25.0 mg/kg/injection, schedule: Q01DX009 (ip), vehicle: Klucel (hydroxypropylcellulose) (HPC)
[8] = dose: 3.12 mg/kg/injection, schedule: Q01DX009 (ip), vehicle: saline with Tween-80
[9] = dose: 6.25 mg/kg/injection, schedule: Q01DX009 (ip), vehicle: saline with Tween-80

## O=C1c2ccccc2C(=O)c2c(NCCNCCO)ccc(NCCNCCO)c21
dose: 1.0 mg/kg/injection, schedule: Q01DX009 (ip), vehicle: other
  T/C: 151 % of control
dose: 2.0 mg/kg/injection, schedule: Q01DX009 (ip), vehicle: other
  T/C: 180 % of control and 186 % of control
dose: 2.5 mg/kg/injection, schedule: Q01DX009 (ip), vehicle: water
  T/C: 195 % of control
dose: 4.0 mg/kg/injection, schedule: Q01DX009 (ip), vehicle: other
  T/C: 195 % of control and 248 % of control
dose: 4.0 mg/kg/injection, schedule: Q01DX009 (ip), vehicle: saline
  T/C: 179 % of control
dose: 5.0 mg/kg/injection, schedule: Q01DX009 (ip), vehicle: water
  T/C: 205 % of control
dose: 8.0 mg/kg/injection, schedule: Q01DX009 (ip), vehicle: other
  T/C: 218 % of control and 243 % of control
dose: 8.0 mg/kg/injection, schedule: Q01DX009 (ip), vehicle: saline
  T/C: 234 % of control
dose: 10.0 mg/kg/injection, schedule: Q01DX009 (ip), vehicle: water
  T/C: 215 % of control
dose: 16.0 mg/kg/injection, schedule: Q01DX009 (ip), vehicle: other
  T/C: 215 % of control and 231 % of control
dose: 16.0 mg/kg/injection, schedule: Q01DX009 (ip), vehicle: saline
  T/C: 292 % of control
dose: 20.0 mg/kg/injection, schedule: Q01DX009 (ip), vehicle: water
  T/C: 220 % of control
dose: 32.0 mg/kg/injection, schedule: Q01DX009 (ip), vehicle: saline
  T/C: 292 % of control
dose: 62.5 mg/kg/injection, schedule: Q01DX001 (ip), vehicle: saline
  T/C: 153 % of control

## N#CN=[N+]([O-])c1ccc(C(=O)O)cc1
dose: 1.87 mg/kg/injection, schedule: Q01DX009 (ip), vehicle: Klucel (hydroxypropylcellulose) (HPC)
  T/C: 99 % of control and 101 % of control
dose: 3.75 mg/kg/injection, schedule: Q01DX009 (ip), vehicle: Klucel (hydroxypropylcellulose) (HPC)
  T/C: 96 % of control and 105 % of control
dose: 7.5 mg/kg/injection, schedule: Q01DX009 (ip), vehicle: Klucel (hydroxypropylcellulose) (HPC)
  T/C: 95 % of control and 102 % of control
dose: 15.0 mg/kg/injection, schedule: Q01DX009 (ip), vehicle: Klucel (hydroxypropylcellulose) (HPC)
  T/C: 89 % of control and 91 % of control
dose: 30.0 mg/kg/injection, schedule: Q01DX009 (ip), vehicle: Klucel (hydroxypropylcellulose) (HPC)
  T/C: 90 % of control and 97 % of control

## Cc1ccc(NN=O)nc1
dose: 0.75 mg/kg/injection, schedule: Q01DX009 (ip), vehicle: water
  T/C: 114 % of control
dose: 1.5 mg/kg/injection, schedule: Q01DX009 (ip), vehicle: water
  T/C: 120 % of control
dose: 1.56 mg/kg/injection, schedule: Q01DX009 (ip), vehicle: water
  T/C: 112 % of control
dose: 3.0 mg/kg/injection, schedule: Q01DX009 (ip), vehicle: water
  T/C: 120 % of control
dose: 6.0 mg/kg/injection, schedule: Q01DX009 (ip), vehicle: water
  T/C: 124 % of control

## CC(C)CC(NC(=O)CN)C(=O)O (stereo not drawn)
[1]
  T/C: 101 % of control
dose: 200.0 mg/kg/injection, schedule: Q01DX009 (ip), vehicle: saline with Tween-80
  T/C: 95 % of control
dose: 400.0 mg/kg/injection, schedule: Q01DX009 (ip), vehicle: saline with Tween-80
  T/C: 97 % of control

## COc1cc2cc(c1Cl)N(C)C(=O)/C=C/C1(C)OC1C(C)C1CC(O)(NC(=O)O1)C(OC)/C=C/C=C(\C)C2OC (stereo not drawn)
dose: 4.0 micrograms/kg/injection, schedule: Q01DX009 (ip), vehicle: distilled water + alcohol
  T/C: 117 % of control
dose: 8.0 micrograms/kg/injection, schedule: Q01DX009 (ip), vehicle: distilled water + alcohol
  T/C: 105 % of control
dose: 16.0 micrograms/kg/injection, schedule: Q01DX009 (ip), vehicle: distilled water + alcohol
  T/C: 112 % of control

## Clc1cc(Cl)c(C[N+]23CN4CN(CN(C4)C2)C3)cc1Cl
[2]
  T/C: 101 % of control
dose: 12.5 mg/kg/injection, schedule: Q01DX009 (ip), vehicle: saline
  T/C: 102 % of control
[3]
  T/C: 105 % of control
dose: 25.0 mg/kg/injection, schedule: Q01DX009 (ip), vehicle: saline
  T/C: 100 % of control
[4]
  T/C: 102 % of control
dose: 50.0 mg/kg/injection, schedule: Q01DX009 (ip), vehicle: saline
  T/C: 106 % of control
[1]
  T/C: 107 % of control
dose: 100.0 mg/kg/injection, schedule: Q01DX009 (ip), vehicle: saline
  T/C: 111 % of control

## C=C1C(=O)O[C@@H]2[C@H]3O[C@]3(C)CCC=C(C)CC[C@@H]12
[5]
  T/C: 91 % of control
[6]
  T/C: 97 % of control
[7]
  T/C: 98 % of control
dose: 50.0 mg/kg/injection, schedule: Q01DX009 (ip), vehicle: Klucel (hydroxypropylcellulose) (HPC)
  T/C: 108 % of control

## CCC(=O)OC1CC=NN2C(=O)C(NC(=O)c3nc4ccc(OC)cc4cc3O)COC(=O)C(C(C)(C)O)N(C)C(=O)CN(C)C(=O)CNC(=O)C3C(OC(C)=O)CC=NN3C(=O)C(NC(=O)c3nc4ccc(OC)cc4cc3O)COC(=O)C(C(C)(C)O)N(C)C(=O)CN(C)C(=O)CNC(=O)C12 (stereo not drawn) (I: {Quinaldoyl(3-OH,6-OMe)}-S[X6]G[Sar][ξNMeVal(3-OH)] / II: {Quinaldoyl(3-OH,6-OMe)}-S[X7]G[Sar][ξNMeVal(3-OH)]; ester I:1-II:C, I:C-II:1; configuration not given here)
dose: 4.0 micrograms/kg/injection, schedule: Q01DX009 (ip), vehicle: saline
  T/C: 98 % of control
dose: 8.0 micrograms/kg/injection, schedule: Q01DX009 (ip), vehicle: saline
  T/C: 105 % of control
dose: 16.0 micrograms/kg/injection, schedule: Q01DX009 (ip), vehicle: saline
  T/C: 111 % of control

## CC(/C=C/C1OC(=O)C=CC1C)=C\C(C)C/C=C/C(C)=C/C(C)C(=O)C(C)C(O)C(C)C/C(C)=C/C(=O)O (stereo not drawn)
dose: 12.5 micrograms/kg/injection, schedule: Q01DX009 (ip), vehicle: saline + alcohol
  T/C: 170 % of control and 184 % of control
dose: 25.0 micrograms/kg/injection, schedule: Q01DX009 (ip), vehicle: saline + alcohol
  T/C: 176 % of control and 224 % of control

## CC[C@]1(O)C[C@H]2CN(CCc3c([nH]c4ccccc34)[C@@](C(=O)OC)(c3cc4c(cc3OC)N(C=O)[C@H]3[C@@](O)(C(=O)OC)[C@H](OC(C)=O)[C@]5(CC)C=CCN6CC[C@]43[C@@H]65)C2)C1
dose: 0.06 mg/kg/injection, schedule: Q01DX009 (ip), vehicle: saline
  T/C: 160 % of control
dose: 0.12 mg/kg/injection, schedule: Q01DX009 (ip), vehicle: saline
  T/C: 159 % of control and 176 % of control
dose: 0.25 mg/kg/injection, schedule: Q01DX009 (ip), vehicle: saline
  T/C: 171 % of control and 196 % of control
dose: 0.5 mg/kg/injection, schedule: Q01DX009 (ip), vehicle: saline
  T/C: 190 % of control
dose: 0.5 mg/kg/injection, schedule: Q01DX009 (ip), vehicle: water
  T/C: 108 % of control
dose: 31.25 micrograms/kg/injection, schedule: Q01DX009 (ip), vehicle: water
  T/C: 154 % of control
dose: 62.5 micrograms/kg/injection, schedule: Q01DX009 (ip), vehicle: water
  T/C: 186 % of control
dose: 125.0 micrograms/kg/injection, schedule: Q01DX009 (ip), vehicle: water
  T/C: 193 % of control
dose: 250.0 micrograms/kg/injection, schedule: Q01DX009 (ip), vehicle: water
  T/C: 227 % of control

## BrCC[Se]c1ccccc1
[8]
  T/C: 113 % of control and 104 % of control
[9]
  T/C: 100 % of control
[2]
  T/C: 119 % of control and 103 % of control
[3]
  T/C: 113 % of control and 100 % of control
[4]
  T/C: 95 % of control and 103 % of control

## c1ccc(P(CCNCCP(c2ccccc2)c2ccccc2)c2ccccc2)cc1
[3]
  T/C: 113 % of control
[4]
  T/C: 105 % of control
[1]
  T/C: 116 % of control

## CCCCCCCC(=O)O[C@H]1[C@H]2[C@@H](CC1(C)C)C(=O)[C@]13O[C@H]1C(=O)[C@]1(CO1)[C@]23C
dose: 0.31 mg/kg/injection, schedule: Q01DX009 (ip), vehicle: saline with Tween-80
  T/C: 98 % of control
dose: 0.62 mg/kg/injection, schedule: Q01DX009 (ip), vehicle: saline with Tween-80
  T/C: 90 % of control
dose: 1.25 mg/kg/injection, schedule: Q01DX009 (ip), vehicle: saline with Tween-80
  T/C: 86 % of control and 98 % of control
dose: 2.5 mg/kg/injection, schedule: Q01DX009 (ip), vehicle: saline with Tween-80
  T/C: 88 % of control

## O=c1s[se]c2ccccc12
dose: 1.56 mg/kg/injection, schedule: Q01DX009 (ip), vehicle: Klucel (hydroxypropylcellulose) (HPC)
  T/C: 94 % of control
dose: 1.56 mg/kg/injection, schedule: Q01DX009 (ip), vehicle: saline with Tween-80
  T/C: 104 % of control
dose: 3.12 mg/kg/injection, schedule: Q01DX009 (ip), vehicle: Klucel (hydroxypropylcellulose) (HPC)
  T/C: 108 % of control
[8]
  T/C: 114 % of control
[5]
  T/C: 97 % of control
[9]
  T/C: 87 % of control
[6]
  T/C: 98 % of control
[2]
  T/C: 103 % of control
[7]
  T/C: 94 % of control
[3]
  T/C: 105 % of control
[4]
  T/C: 92 % of control

## COc1c2occc2c(N=NN(C)C)c2ccc(=O)oc12
[9]
  T/C: 98 % of control
[2]
  T/C: 99 % of control
[3]
  T/C: 104 % of control
[4]
  T/C: 107 % of control
